We go through two molecules from PMC8626775, “Anti-schistosomal activities of quinoxaline-containing compounds: From hit identification to lead optimisation” (European Journal of Medicinal Chemistry, 2021).

Data set [1] concerns TK6 cells. Nature of the data set: Genotoxicity assessment in TK6 cells (micronucleus, ɣH2AX, p53, cell cycle). The procedure:
(§1) The in vitro micronucleus (MN) assay was employed for the assessment of chromosome damage. Human, p53 competent, lymphoblastoid TK6 cells (Cat. No. 95111735) were used in this study and obtained from the European Collection of Authenticated Cell Cultures (ECACC)). RPMI 1640 (Gibco, Paisley, UK) culture media supplemented with 1% penicillin/streptomycin (100 U/ml Penicillin and 100 μg/ml Streptomycin), 10% heat inactivated horse serum (Gibco, Paisley, UK), 1% L-glutamine (Gibco, Paisley, UK) and hygromycine-B was used for TK6 cell culture. Cells were incubated at 37 °C in a humidified atmosphere of 5% (v/v) CO2.

Data set [2] in a line: in vitro. Conditions: human, TK6 lymphoblastoid cells. The procedure:
as §1

Data set [3] has as its system Juvenile S. mansoni worms. Nature of the data set: S. mansoni juvenile worm screen (motility score, propidium iodide uptake), 72 h. The class given is cell-based, Schistosoma mansoni. Conditions: for EC50: 3 week juvenile S. mansoni; for PI pos: juvenile worms, Fig. S4. An excerpt:
Mice (Mus musculus HsdOLa:TO - Tuck Ordinary; Envigo, UK) were used for the mammalian-specific propagation of the S. mansoni life cycle. Experimental animals were infected with 4000 or 180 S. mansoni cercariae/mouse and perfused three- or seven-weeks post-infection to obtain S. mansoni juvenile or adult worms, respectively. Preparation steps following perfusion have been described previously. Briefly, the parasite material was washed three times with pre-warmed adult worm media (DMEM (Gibco, Paisley, UK) supplemented with 10% (v/v) Fetal Calf Serum (FCS, Gibco, Paisley, UK), 1% (v/v) L-glutamine (Gibco, Paisley, UK) and an antibiotic mixture (150 Units/ml penicillin and 150 μg/ml streptomycin; Gibco, UK)) to remove residual host contamination and incubated in a humidified environment containing 5% CO2 at 37 °C for at least 1 h.
Juvenile worms were distributed in a 96-well tissue culture plate (n = 20–25 individuals/well) containing 200 μl/well. Compounds were added to each treatment well at a concentration range of 10–0.156 μM. Negative (1.25% DMSO) and positive (15 μM PZQ and 15 μM AUR in 1.25% DMSO) controls were also included in each drug screen. Treated juvenile worms were incubated for 72 h in a humidified environment containing 5% CO2 at 37 °C. Compound-induced phenotype and motility effects were quantified using an adapted version of the WHO-TDR scoring system (in summary: 0 = dead, 1 = movement of the suckers only and slight contraction of the body, 2 = movement at the anterior and posterior regions only, 3 = full body movement but sluggish and 4 = normal movement). Additionally, differential uptake of propidium iodide (PI, P1304MP, Sigma-Aldrich, UK) was used to quantify worm viability as previously described. In brief, after 15 min incubation with 2 μg/ml PI, the parasite cultures were imaged under both bright-field and fluorescent settings (PI detection, 562 and 624 excitation and emission wavelengths, respectively) using an ImageXpressXL high content imager (Molecular Devices, UK). Enumeration of PI positive and negative juvenile worms was manually performed across all parasites within the well and the percentage of PI positive parasite was calculated per well.

For data set [4], the system named is HepG2 cells. The data set is described as follows: HepG2 MTT cytotoxicity assay. The essentials: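 HepG2 cells seeded at 2 × 10^4 cells/well, cultured at 37 °C in 5% CO2. Viability by MTT, formazan absorbance at 570 nm. The cytotoxicity value served for computing compound selectivity index.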
For data set [5], the system named is S. mansoni adult worms. Nature of the data set: In vitro laid egg (IVLE) production by S. mansoni adult worm pairs, 72 h. Format: cell-based, Schistosoma mansoni. Conditions: 0.0024–10 μM. The procedure:
For the evaluation of anti-schistosomal activity on the adult stage of the parasite, 7-wk old worms were transferred into 48 well tissue culture plates (1–3 worm pairs/well, in duplicate). […] DMSO (0.5%) and praziquantel (10 μM in 0.5% DMSO) were also included as negative and positive control treatments. Treated adult worms were incubated for 72 h in a humidified environment containing 5% CO2 at 37 °C. Parasite motility after compound treatment was assessed by a digital image processing-based system (WormassayGP2), modified after Wormassay. Following compound-parasite co-incubation, eggs were collected, fixed in formalin (10% v/v formaldehyde) and enumerated aiming to collect further information on any compound-induced effects on parasite fecundity and IVLE production.

Structures are written as SMILES. Entries after “also recorded” stand apart in the source; their conditions may differ.

Regarding `O=[N+]([O-])c1ccc2nc(Nc3ccc(Cl)c(Cl)c3)c(Nc3ccc(Cl)c(Cl)c3)nc2c1` [Compound 22, N^2, N^3-bis(3,4-dichlorophenyl)-6-nitroquinoxaline-2,3-diamine], the “Number of micronuclei (MNi) compared to DMSO treated cells” value in data set [1] is recorded as “did not change significantly”. Further, the Cell-cycle analysis entry in data set [1] (2 and 4 μM) is given as “G2/M phase arrest”. The Genotoxicity result in data set [1] (TK6 cells, 0.5, 2 and 4 μM) was “non-genotoxic; also recorded: does not induce genotoxicity”. Besides, the CC50 (in general, the concentration at which the toxic effect on the cells reaches its halfway point) at 24 h in data set [2] is 9360 nM. The half-maximal effective concentration (EC50) – broadly, the concentration that produces a half-maximal response – in data set [3] (72 h) worked out at 201 nM; in data set [3] (Schistosoma mansoni, 72 h), 200 nM. Moreover, the “Concentration down to which parasite death of juvenile worms was induced” value in data set [3] (72 h, supported by propidium iodide staining) was 1.25 µM. For the same molecule, the PI pos in data set [3] (0.156 µM) turned out to be 0%; in data set [3] (0.312 µM) it was 10%; in data set [3] (0.625 µM), 20%; in data set [3] (1.25 µM), 100%; in data set [3] (2.50 µM), 100%; in data set [3] (5 µM) it was 100%. In data set [3] (10 µM), this molecule gave a PI pos of 100%.

`O=[N+]([O-])c1ccc2nc(Nc3cc(C(F)(F)F)ccc3F)c(Nc3cc(C(F)(F)F)ccc3F)nc2c1` [Compound 33, N2, N3-bis(2-fluoro-5-(trifluoromethyl)phenyl)-6-nitroquinoxaline-2,3-diamine]: the “Toxicity on HepG2 in words” value in data set [4] (24 h) was “low toxicity”. Besides, the “Selectivity Index (SI) Adult worms” value in data set [4] (HepG2 CC50 versus adult worm EC50) is listed as 17.87. Also, the “Selectivity Index (SI) Somula” value in data set [4] (HepG2 CC50 versus schistosomula EC50) came to 0.66. The “Effect on IVLE production compared with PZQ” value in data set [5] was “more potent than PZQ”.
